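How tested: cells in 96-well plates exposed to compound for 48 hours at five concentrations. GI50: concentration for 50% inhibition of growth. Definition used: TGI = concentration required for complete inhibition of growth.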
Key:
Assay in all cases: inhibition of tumour cell growth, NCI panel, 48 h
HS 578T breast = system: HS 578T breast
MOLT-4 leukemia = system: MOLT-4 leukemia
OVCAR-4 ovarian = system: OVCAR-4 ovarian
PC-3 prostate = system: PC-3 prostate
A549 NSCLC = system: A549 NSCLC
UACC-257 melanoma = system: UACC-257 melanoma
HOP-62 NSCLC = system: HOP-62 NSCLC
HCC-2998 colon = system: HCC-2998 colon
SR leukemia = system: SR leukemia
T-47D breast = system: T-47D breast

Structure (SMILES) | TGI (HS 578T breast) | TGI (MOLT-4 leukemia) | TGI (OVCAR-4 ovarian) | TGI (PC-3 prostate) | TGI (A549 NSCLC) | TGI (UACC-257 melanoma) | TGI (HOP-62 NSCLC) | TGI (HCC-2998 colon) | TGI (SR leukemia) | TGI (T-47D breast) | GI50 (HS 578T breast) | GI50 (MOLT-4 leukemia) | GI50 (OVCAR-4 ovarian) | GI50 (SR leukemia) | GI50 (A549 NSCLC) | GI50 (UACC-257 melanoma) | GI50 (HOP-62 NSCLC)
COc1ccc(/C=C2\S/C(=N/Nc3nc(-c4ccccc4)cs3)NC2=O)cc1OC | 83.3 µM | 20.6 µM | 98.1 µM | 52.6 µM | > 100 µM | > 100 µM | > 100 µM | 64.2 µM | – | – | – | – | – | – | – | – | –
COc1ccc(C2=NN(c3ccccc3)C[N+](c3ccc(OC)cc3)=N2)cc1 | – | 90.7 µM | 64 µM | – | > 100 µM | > 100 µM | > 100 µM | > 100 µM | > 100 µM | – | – | – | – | – | – | – | –
Cc1cn(Cc2cnnn2CC2OC(n3cc(C)c(=O)[nH]c3=O)CC2O)c(=O)[nH]c1=O (stereo not given) | > 100 µM | > 100 µM | > 100 µM | > 100 µM | > 100 µM | > 100 µM | > 100 µM | > 100 µM | – | > 100 µM | – | – | – | – | – | – | –
CC1(c2ccc[n+](Cc3ccccc3)c2)OCCO1 | – | > 100 µM | > 100 µM | – | > 100 µM | > 100 µM | > 100 µM | > 100 µM | > 100 µM | – | – | – | – | – | – | – | –
COC(=O)C(CSSC[C@H](N/C(C)=C/C(C)=O)C(=O)OC)N/C(C)=C/C(C)=O (stereo not given in full) | 52.9 µM | > 100 µM | > 100 µM | > 100 µM | > 100 µM | > 100 µM | > 100 µM | – | – | 58 µM | – | – | – | – | – | – | –
c1cn(C23C4C5C6C4C2C6C53)cn1 (stereo not given) | > 100 µM | > 100 µM | – | > 100 µM | > 100 µM | > 100 µM | > 100 µM | > 100 µM | > 100 µM | > 100 µM | – | – | – | – | – | – | –
O=c1c2cc(I)ccc2nc(-c2cccs2)n1-c1ccc(O)cc1 | – | 78.9 µM | 49.1 µM | 22.5 µM | 27.4 µM | 22.1 µM | 32.4 µM | 30.6 µM | > 100 µM | 10.7 µM | – | – | – | – | – | – | –
Nc1ccccc1CC(O)C(=O)O (stereo not given) | > 100 µM | > 100 µM | – | > 100 µM | > 100 µM | > 100 µM | > 100 µM | > 100 µM | > 100 µM | > 100 µM | – | – | – | – | – | – | –
COc1ccc(C(=O)/C=C/c2c(Cl)c3c(c(OC)c2Cl)OCC(=O)N3)cc1 | 50.4 µM | 9.75 µM | 8.04 µM | – | > 100 µM | > 100 µM | 6.96 µM | – | 7.45 µM | – | 4.43 µM | 2.71 µM | 2.56 µM | 1.15 µM | 3.61 µM | 2.98 µM | 2.8 µM
CC1(C)[C@H]2CC[C@]1(C)[C@H](OC(=O)NNC(=O)O[C@@H]1C[C@@H]3CC[C@@]1(C)C3(C)C)C2 | 36.6 µM | 27.3 µM | 24.1 µM | – | 25.1 µM | 33 µM | 29.5 µM | 27.7 µM | – | 23 µM | – | – | – | – | – | – | –
O=c1[nH]nc(-c2ccccc2)n1/N=C/c1cccnc1 | > 100 µM | > 100 µM | – | > 100 µM | > 100 µM | > 100 µM | > 100 µM | > 100 µM | > 100 µM | > 100 µM | – | – | – | – | – | – | –
CCN(C(=S)N[C@H](C(=O)N[C@@H](C)C(=O)OC)C(C)C)c1ccccc1 | – | > 100 µM | > 100 µM | > 100 µM | > 100 µM | > 100 µM | > 100 µM | > 100 µM | 52.7 µM | > 100 µM | – | – | – | – | – | – | –
CCN(CC)c1ccc2cc(C(=O)Nc3cccc4ccccc34)c(=N)oc2c1 | > 100 µM | – | > 100 µM | > 100 µM | > 100 µM | > 100 µM | – | > 100 µM | > 100 µM | > 100 µM | – | – | – | – | – | – | –
C[C@H]1C[C@H]2[C@@H]3C(C)(C)O[C@]4(O)C(=O)[C@]5(O)[C@@H](C)CC[C@H]1[C@]25C(=O)[C@]34C | > 100 µM | 80.7 µM | – | > 100 µM | > 100 µM | > 100 µM | > 100 µM | – | 96.6 µM | 70.9 µM | – | – | – | – | – | – | –
C(CCCCc1nnc(N2CCCCC2)o1)CCCc1nnc(N2CCCCC2)o1 | – | > 100 µM | > 100 µM | > 100 µM | > 100 µM | > 100 µM | > 100 µM | > 100 µM | – | – | – | – | – | – | – | – | –
O=C(O)c1ccn(-c2cccc(-n3ccc(C(=O)O)n3)n2)n1 | > 100 µM | > 100 µM | > 100 µM | > 100 µM | > 100 µM | > 100 µM | > 100 µM | – | > 100 µM | – | – | – | – | – | – | – | –
COc1ccc(C2N(NC(=O)c3ccncc3)C(=O)CS2(=O)=O)cc1F (stereo not given) | – | > 100 µM | > 100 µM | – | > 100 µM | > 100 µM | > 100 µM | > 100 µM | > 100 µM | – | – | – | – | – | – | – | –
Nc1ncnc2c1nnn2C1CCC(CP(=O)(O)O)C1 (stereo not given) | – | > 100 µM | > 100 µM | > 100 µM | > 100 µM | > 100 µM | > 100 µM | > 100 µM | > 100 µM | > 100 µM | – | – | – | – | – | – | –
COc1c(O)cc(O)c2c(=O)cc(-c3ccccc3)oc12 | > 100 µM | > 100 µM | > 100 µM | > 100 µM | > 100 µM | > 100 µM | 49.8 µM | > 100 µM | > 100 µM | – | – | – | – | – | – | – | –
COc1ccc(-c2cc(-c3ccc(Nc4ccnc5cc(Cl)ccc45)cc3)[nH]c(=O)c2C#N)c2ccccc12 | – | 6.17 µM | – | > 100 µM | > 52.9 µM | 99.4 µM | > 53.9 µM | > 92.9 µM | 2.6 µM | – | – | – | – | – | – | – | –
CC(=O)c1c(C(F)(F)F)n([O-])c2cc(Cl)c(Cl)cc2[n+]1=O | 2.38 µM | 0.544 µM | 2.73 µM | 3.09 µM | 1.91 µM | 2.11 µM | 0.887 µM | – | 0.0361 µM | 2.96 µM | – | – | – | – | – | – | –
CCOC(=O)Cc1cc(OC)c(OC)cc1/C(Cl)=C(\C=O)c1ccc(OC)c(OC)c1 | – | 42.1 µM | 56.3 µM | – | 57.1 µM | 32.9 µM | 46.9 µM | – | – | – | – | – | – | – | – | – | –
CN1CCN(CCCBr)CC1 | > 100 µM | – | > 100 µM | > 100 µM | > 100 µM | > 100 µM | > 100 µM | – | – | > 100 µM | – | – | – | – | – | – | –
